Measured values from patent US20240238212A1, “LIPID COMPOUNDS AND LIPID NANOPARTICLE COMPOSITIONS” (SUZHOU ABOGEN BIOSCIENCES CO., LTD., priority 2022, published 2024).

Assays:
[1] = Lipid nanoparticle size and polydispersity by dynamic light scattering; assay type: physicochemical; conditions: LNP comprising the compound, hEPO mRNA; for Size (nm): cationic lipid/DSPC/cholesterol/PEG-lipid 50:10:38.5:1.5
Procedure: (§1) Briefly, a cationic lipid provided herein, DSPC, cholesterol, and PEG-lipid were solubilized in ethanol at a molar ratio of 50:10:38.5:1.5, and mRNA were diluted in 10 to 50 mM citrate buffer, pH=4. The LNPs were prepared at a total lipid to mRNA weight ratio of approximately 10:1 to 30:1 by mixing the ethanolic lipid solution with the aqueous mRNA solution at a volume ratio of 1:3 using a microfluidic apparatus, total flow rate ranging from 9-30 mL/min. Ethanol were thereby removed and replaced by DPBS using dialysis. Finally, the lipid nanoparticles were filtered through a 0.2 μm sterile filter.
(§2) Lipid nanoparticle size were determined by dynamic light scattering using a Malvern Zetasizer Nano ZS (Malvern UK) using a 173° backscatter detection mode. The encapsulation efficiency of lipid nanoparticles were determined using a Quant-it Ribogreen RNA quantification assay kit (Thermo Fisher Scientific, UK) according to the manufacturer's instructions.

[2] = Apparent pKa of LNP formulations (TNS fluorescence assay); assay type: physicochemical; conditions: LNP formulation, TNS assay (Table 2)
Procedure: As reported in literature, the apparent pKa of LNP formulations correlates with the delivery efficiency of LNPs for nucleic acids in vivo. The apparent pKa of each formulation was determined using an assay based on fluorescence of 2-(p-toluidino)-6-napthalene sulfonic acid (TNS). LNP formulations comprising of cationic lipid/DSPC/cholesterol/DMG-PEG (50/10/38.5/1.5 mol %) in PBS were prepared as described above. TNS was prepared as a 300 μM stock solution in distilled water. LNP formulations were diluted to 0.1 mg/mL total lipid in 3 mL of buffered solutions containing 50 mM sodium citrate, 50 mM sodium phosphate, 50 mM sodium borate, and 30 mM sodium chloride where the pH ranged from 3 to 9. An aliquot of the TNS solution was added to give a final concentration of […] and following vortex mixing fluorescence intensity was measured at room temperature in a Molecular Devices Spectramax iD3 spectrometer using excitation and mission wavelengths of 325 nm and 435 nm. A sigmoidal best fit analysis was applied to the fluorescence data and the pKa value was measured as the pH giving rise to half-maximal fluorescent intensity.

[3] = Encapsulation efficiency of lipid nanoparticles (Quant-it Ribogreen RNA assay); assay type: physicochemical; conditions: LNP comprising the compound, hEPO mRNA
Procedure: as §1, §2

[4] = system: human erythropoietin (hEPO) mRNA expression; experiment: Animal Study 1: hEPO mRNA LNPs i.v. in mice, serum EPO by ELISA; assay type: in vivo; conditions: female ICR mice, 0.5 mg/kg tail vein injection, blood e.g. 6 hours post administration; relative to MC3 LNP
Procedure: Lipid nanoparticles comprising compounds in the following table encapsulating human erythropoietin (hEPO) mRNA were systemically administered to 6-8 week old female ICR mice (Xipuer-Bikai, Shanghai) at 0.5 mg/kg dose by tail vein injection and mice blood were sampled at specific time points (e.g., 6 hours) post administration. In addition to the aforementioned tested groups, lipid nanoparticles comprising dilinoleylmethyl-4-dimethylaminobutyrate (DLin-MC3-DMA, usually abbreviated to MC3) encapsulating hEPO mRNA were similarly administered at the same dose to age and gender comparative groups of mice as a positive control.
Mice were euthanized by CO2 overdoses after the last sampling time point. Serum were separated from total blood by centrifugation at 5000 g for 10 minutes at 4 T, snap-frozen and stored at −80 T for analysis. ELISA assay were carried out using a commercial kit (DEP00, R&D systems) according to manufacturer's instructions.
Characteristics of tested lipid nanoparticles, including EPO expression levels over MC3 measured from the tested group are listed in the table below.

| SMILES | Polydispersity [1] | Size (nm) [1] [nm] | Apparent pKa [2] | Encapsulation efficiency [3] [%] | EPO expression over MC3 [4] |
| --- | --- | --- | --- | --- | --- |
| CCCCCCCC(=O)OCC(CCCCN(CCCCC(COC(=O)CCCCCCC)COC(=O)CCCCCCC)[C@H]1CC[C@H](CO)CC1)COC(=O)CCCCCCC [Compound 59] | 0.066 | 168.4 | 6.633 | 72.86 | A (≥2) |
| CCCCCCCC(=O)OCC(CCCCN(CCCCC(COC(=O)CCCCCCC)COC(=O)CCCCCCC)C1CC(CO)C1)COC(=O)CCCCCCC (centres unmarked) [Compound 54] | 0.109 | 63.7 | 6.679 | 94.90 | B (≥1 and <2) |
| CCCCCCCCCC(=O)OCC(COC(=O)CCCCCCCCC)COC(=O)CCCCCN(CCO)CCCCCC(=O)OCC(COC(=O)CCCCCCCCC)COC(=O)CCCCCCCCC [Compound 71] | 0.098 | 68.05 | 6.599 | 96.34 | A (≥2) |
| CCCCCCCC(=O)OCC(CCCCN(CCCCCO)CCCCC(COC(=O)CCCCCCC)COC(=O)CCCCCCC)COC(=O)CCCCCCC [Compound 3] | 0.101 | 72.97 | 6.726 | 88.90 | A (≥2) |
| CCCCCCCC(=O)OCC(CC)(COC(=O)CCCCCCC)COC(=O)CCCCCN(CCO)CCCCCC(=O)OCC(CC)(COC(=O)CCCCCCC)COC(=O)CCCCCCC [Compound 82] | 0.010 | 69.37 | 6.342 | 95.75 | A (≥2) |
| CCCCCCCC(=O)OCC(COC(=O)CCCCCCC)COC(=O)CCCCCN(CCCCCCO)CCCCCC(=O)OCC(COC(=O)CCCCCCC)COC(=O)CCCCCCC [Compound 69] | 0.012 | 106.71 | 6.271 | 94.81 | B (≥1 and <2) |
| CCCCCCCCC(CCCCCC)C(=O)OCC(CCCCN(CCO)CCCCC(COC(=O)CCCCCCC)COC(=O)CCCCCCC)COC(=O)C(CCCCCC)CCCCCCCC (centres unmarked) [Compound 12] | 0.053 | 56.95 | – | 87.61 | D (<0.1) |
| CCCCCCCCCCC(=O)OCC(COC(=O)CCCCCCCCCC)COC(=O)CCCCCN(CCO)CCCCCC(=O)OCC(COC(=O)CCCCCCCCCC)COC(=O)CCCCCCCCCC [Compound 72] | 0.111 | 72.07 | 6.728 | 96.28 | A (≥2) |
| CCCCC/C=C\C/C=C\CCCCCCCC(=O)OCCCCCCN(CCCCC(COC(=O)CCCCCCC)COC(=O)CCCCCCC)CCCNc1c(N(C)C)c(=O)c1=O [Compound 42] | 0.0478 | 77.38 | 6.657 | 95.23 | C (≥0.1 and <1) |
| CCCCCCCCC(CCCCCC)CNC(=O)CCCCCN(CCCCC(COC(=O)CCCCCCC)COC(=O)CCCCCCC)CC1(CO)CCCC1 (centres unmarked) [Compound 62] | 0.031 | 71.06 | 5.299 | 88.45 | D (<0.1) |
| CCCCCCCC(=O)OCC(CCCCN(CCCCC(COC(=O)CCCCCCC)COC(=O)CCCCCCC)CCCNc1c(N(C)CC)c(=O)c1=O)COC(=O)CCCCCCC [Compound 34] | 0.04761 | 67.6 | 6.34 | 89.70 | A (≥2) |
| CCCCCCCC(=O)OCC(C)(COC(=O)CCCCCCC)COC(=O)CCCCCN(CCO)CCCCCC(=O)OCC(C)(COC(=O)CCCCCCC)COC(=O)CCCCCCC [Compound 64] | 0.094 | 83.57 | 6.575 | 94.94 | A (≥2) |
| CCCCCCCC(=O)OCC(COC(=O)CCCCCCC)COC(=O)CCCCCN(CCCCO)CCCCCC(=O)OCC(COC(=O)CCCCCCC)COC(=O)CCCCCCC [Compound 67] | 0.026 | 87.2 | 6.705 | 94.95 | A (≥2) |
| CCCCCCCC(=O)OCC(CCCCCCN(CCCCCO)CCCCCCC(COC(=O)CCCCCCC)COC(=O)CCCCCCC)COC(=O)CCCCCCC [Compound 29] | 0.031 | 80.75 | 6.513 | 86.98 | A (≥2) |
| CCCCCCCC(=O)OCC(COC(=O)CCCCCCC)COC(=O)CCCCCCCN(CCO)CCCCCCCC(=O)OCC(COC(=O)CCCCCCC)COC(=O)CCCCCCC [Compound 65] | 0.040 | 62.56 | 6.338 | 96.01 | A (≥2) |
| CCCCCCCCCCCCOC(=O)CCCCCN(CCO)CCCCCC(=O)OCC(COC(=O)CCCCCCC)COC(=O)CCCCCCC [Compound 4] | – | – | 6.943 | – | C (≥0.1 and <1) |
| CCCCCCCCCCCCCCCCCC(=O)OCCCCCCN(CCCCC(COC(=O)CCCCCCC)COC(=O)CCCCCCC)C1CCC(O)CC1 (centres unmarked) [Compound 36] | 0.1156 | 78.92 | 6.867 | 85.90 | C (≥0.1 and <1) |
| CCCCCCCC(=O)OCC(CCCCN(CCCCC(COC(=O)CCCCCCC)COC(=O)CCCCCCC)CC1(CO)CCCC1)COC(=O)CCCCCCC [Compound 49] | 0.111 | 69.44 | – | 83.82 | – |
| CCCCCCCC(=O)OCC(CCCCN(CCCCC(COC(=O)CCCCCCC)COC(=O)CCCCCCC)CCC1(O)CCCCC1)COC(=O)CCCCCCC [Compound 50] | 0.117 | 67.07 | – | 83.93 | – |
| CCCCCCCC(=O)OCC(CCCCN(CCO)CCCCC(COC(=O)CCCCCCC)COC(=O)CCCCCCC)COC(=O)CCCCCCC [Compound 1] | – | – | – | – | A (≥2) |
| CCCCCCCC(=O)OCC(CCCCN(CCCCC(COC(=O)CCCCCCC)COC(=O)CCCCCCC)[C@H](CO)C(C)C)COC(=O)CCCCCCC [Compound 46] | 0.135 | 68.21 | – | 73.99 | – |
| CCCCCCCC(=O)OCC(CCCCN(CCCCC(COC(=O)CCCCCCC)COC(=O)CCCCCCC)[C@@H](CO)C(C)C)COC(=O)CCCCCCC [Compound 44] | 0.126 | 74.63 | – | 86.17 | – |
| CCCCCCCC(=O)OCC(CCCCN(CCCCC(COC(=O)CCCCCCC)COC(=O)CCCCCCC)CCN(CCO)C1CCC1)COC(=O)CCCCCCC [Compound 2] | – | – | – | – | A (≥2) |
| CCCCCCCCCCCCCCCCCC(=O)OCCCCCCN(CCCCC(COC(=O)CCCCCCC)COC(=O)CCCCCCC)CCCNc1c(N(C)C)c(=O)c1=O [Compound 41] | 0.08791 | 55.42 | – | 95.98 | – |
| CCCCCCCCCCC(=O)OCCCCCCN(CCCCC(COC(=O)CCCCCCC)COC(=O)CCCCCCC)CCCNc1c(N(C)C)c(=O)c1=O [Compound 40] | 0.1163 | 66.72 | – | 93.31 | – |
| CCCCCCCC(=O)OCC(CCCCN(CCCCC(COC(=O)CCCCCCC)COC(=O)CCCCCCC)CC1(CO)CCC1)COC(=O)CCCCCCC [Compound 45] | 0.14 | 61.88 | – | 86.40 | – |
